Reference: ChEMBL document CHEMBL1201862, “PubChem BioAssay data set” (2004)
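Cultured in 96-well plates, cells were exposed to test compound for 48 hours across five concentrations. GI50 marks 50% less growth.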 Active and inactive are the calls of the source. No stated cut-off is given here; in the data, active = GI50 up to about 1.1 µM and inactive = higher.

Assays:
Experiment in all cases: growth of human tumour cells (NCI), 48 h
786-0 = system: 786-0
A498 = system: A498
A549 = system: A549
ACHN = system: ACHN
CAKI-1 = system: CAKI-1
CCRF-CEM = system: CCRF-CEM
COLO 205 = system: COLO 205
DU-145 = system: DU-145
HCT-116 = system: HCT-116
HCT-15 = system: HCT-15
HL-60 = system: HL-60
HOP-62 = system: HOP-62
HOP-92 = system: HOP-92
Hs-578T = system: Hs-578T
IGROV-1 = system: IGROV-1
K562 = system: K562
KM12 = system: KM12
LOX IMVI = system: LOX IMVI
M14 = system: M14
MCF7 = system: MCF7
MDA-MB-231 = system: MDA-MB-231
MDA-MB-435 = system: MDA-MB-435
MDA-N = system: MDA-N
MOLT-4 = system: MOLT-4
NCI-H226 = system: NCI-H226
NCI-H23 = system: NCI-H23
NCI-H460 = system: NCI-H460
NCI/ADR-RES = system: NCI/ADR-RES
OVCAR-3 = system: OVCAR-3
OVCAR-5 = system: OVCAR-5
OVCAR-8 = system: OVCAR-8
PC-3 = system: PC-3
RPMI-8226 = system: RPMI-8226
RXF 393 = system: RXF 393
SF-268 = system: SF-268
SF-295 = system: SF-295
SF-539 = system: SF-539
SK-MEL-2 = system: SK-MEL-2
SK-MEL-5 = system: SK-MEL-5
SK-OV-3 = system: SK-OV-3
SN12C = system: SN12C
SNB-19 = system: SNB-19
SR = system: SR
SW-620 = system: SW-620
T47D = system: T47D
U-251 = system: U-251
UACC-257 = system: UACC-257
UACC-62 = system: UACC-62
UO-31 = system: UO-31
HCC 2998 = system: HCC 2998
HT-29 = system: HT-29
NCI-H522 = system: NCI-H522
OVCAR-4 = system: OVCAR-4
SK-MEL-28 = system: SK-MEL-28
SNB-75 = system: SNB-75
TK-10 = system: TK-10
EKVX = system: EKVX
Malme-3M = system: Malme-3M

For `O=c1oc2ccccc2c2c(=O)c3ccc(OC/C(=N/O)c4ccc(Cl)cc4)cc3oc12`, the GI50 (786-0) was 11.4 µM (inactive), the GI50 (A498) was 3.15 µM (inactive) and the GI50 (A549) was 13.2 µM (inactive). For the same compound, the GI50 (ACHN) was 5.85 µM (inactive), the GI50 (CAKI-1) was 10.6 µM (inactive) and the GI50 (CCRF-CEM) was 28.3 µM (inactive). The GI50 (COLO 205) was 15 µM (inactive), the GI50 (DU-145) was 18.6 µM (inactive) and the GI50 (HCT-116) was 11.2 µM (inactive). For the same compound, the GI50 (HCT-15) was 7.4 µM, the GI50 (HL-60) was 9.25 µM (inactive) and the GI50 (HOP-62) was 15.1 µM (inactive). The GI50 (HOP-92) was 11 µM (inactive), the GI50 (Hs-578T) was 8.3 µM (inactive) and the GI50 (IGROV-1) was 31.5 µM (inactive). The GI50 (K562) was 2 µM (inactive), the GI50 (KM12) was 3.11 µM (inactive) and the GI50 (LOX IMVI) was 11.8 µM (inactive). For the same compound, the GI50 (M14) was 14.6 µM (inactive), the GI50 (MCF7) was 5.83 µM (inactive) and the GI50 (MDA-MB-231) was 20.8 µM (inactive). The GI50 (MDA-MB-435) was 2.47 µM (inactive), the GI50 (MDA-N) was 3.57 µM (inactive) and the GI50 (MOLT-4) was 5.06 µM (inactive). The GI50 (NCI-H226) was 17.4 µM (inactive), the GI50 (NCI-H23) was 18.4 µM (inactive) and the GI50 (NCI-H460) was 11.9 µM (inactive). The GI50 (NCI/ADR-RES) was 7.35 µM (inactive), the GI50 (OVCAR-3) was 3.62 µM (inactive) and the GI50 (OVCAR-5) was 17.3 µM (inactive). The GI50 (OVCAR-8) was 24 µM (inactive), the GI50 (PC-3) was 7.48 µM (inactive) and the GI50 (RPMI-8226) was 11.7 µM (inactive). The GI50 (RXF 393) was 2.16 µM (inactive), the GI50 (SF-268) was 14.2 µM (inactive) and the GI50 (SF-295) was 1.89 µM (inactive). The GI50 (SF-539) was 7.89 µM (inactive), the GI50 (SK-MEL-2) was 4.85 µM (inactive) and the GI50 (SK-MEL-5) was 5.05 µM (inactive). For the same compound, the GI50 (SK-OV-3) was 11.7 µM (inactive), the GI50 (SN12C) was 19.9 µM (inactive) and the GI50 (SNB-19) was 14.9 µM (inactive). The GI50 (SR) was 2.88 µM (inactive), the GI50 (SW-620) was 12.8 µM (inactive) and the GI50 (T47D) was 29.4 µM (inactive). For the same compound, the GI50 (U-251) was 9.51 µM (inactive), the GI50 (UACC-257) was 33.9 µM (inactive) and the GI50 (UACC-62) was 5.07 µM (inactive). The GI50 (UO-31) was 14.3 µM (inactive).

`N=C(N)SCCC(=O)CCSC(=N)N` was tested, and the GI50 (A498) was 5.5 µM (inactive), the GI50 (A549) was > 100 µM (inactive) and the GI50 (ACHN) was > 100 µM (inactive). For the same compound, the GI50 (CCRF-CEM) was > 100 µM (inactive), the GI50 (COLO 205) was > 100 µM (inactive) and the GI50 (DU-145) was > 100 µM (inactive). For the same compound, the GI50 (HCC 2998) was > 100 µM (inactive), the GI50 (HCT-116) was > 100 µM (inactive) and the GI50 (HCT-15) was > 100 µM. The GI50 (HL-60) was > 100 µM (inactive), the GI50 (HOP-92) was > 100 µM (inactive) and the GI50 (HT-29) was > 100 µM (inactive). For the same compound, the GI50 (Hs-578T) was > 100 µM (inactive), the GI50 (K562) was 99.5 µM (inactive) and the GI50 (KM12) was 70.3 µM (inactive). For the same compound, the GI50 (LOX IMVI) was > 100 µM (inactive), the GI50 (M14) was > 100 µM (inactive) and the GI50 (MCF7) was > 100 µM (inactive). The GI50 (MDA-MB-231) was > 100 µM (inactive), the GI50 (MDA-MB-435) was > 100 µM (inactive) and the GI50 (MDA-N) was > 100 µM (inactive). For the same compound, the GI50 (MOLT-4) was 99.5 µM (inactive), the GI50 (NCI-H226) was > 100 µM (inactive) and the GI50 (NCI-H23) was > 100 µM (inactive). For the same compound, the GI50 (NCI-H460) was > 100 µM (inactive), the GI50 (NCI-H522) was > 100 µM (inactive) and the GI50 (NCI/ADR-RES) was 91.2 µM (inactive). For the same compound, the GI50 (OVCAR-3) was > 100 µM (inactive), the GI50 (OVCAR-4) was > 100 µM (inactive) and the GI50 (OVCAR-8) was > 100 µM (inactive). For the same compound, the GI50 (PC-3) was > 100 µM (inactive), the GI50 (RXF 393) was > 100 µM (inactive) and the GI50 (SF-268) was > 100 µM (inactive). The GI50 (SF-295) was > 100 µM (inactive), the GI50 (SK-MEL-28) was > 100 µM (inactive) and the GI50 (SK-MEL-5) was > 100 µM (inactive). The GI50 (SK-OV-3) was > 100 µM (inactive), the GI50 (SN12C) was > 100 µM (inactive) and the GI50 (SNB-19) was > 100 µM (inactive). The GI50 (SNB-75) was > 100 µM (inactive), the GI50 (SR) was > 100 µM (inactive) and the GI50 (SW-620) was > 100 µM (inactive). For the same compound, the GI50 (T47D) was > 100 µM (inactive), the GI50 (TK-10) was > 100 µM (inactive) and the GI50 (U-251) was > 100 µM (inactive). The GI50 (UACC-257) was 36 µM (inactive) and the GI50 (UO-31) was > 100 µM (inactive).

`O=C(NCCOC(=O)OCCNC(=O)NC1CCCCC1)NC1CCCCC1` was tested, and the GI50 (786-0) was > 100 µM (inactive), the GI50 (A498) was > 100 µM (inactive) and the GI50 (A549) was > 100 µM (inactive). For the same compound, the GI50 (ACHN) was > 100 µM (inactive), the GI50 (CAKI-1) was > 100 µM (inactive) and the GI50 (CCRF-CEM) was > 100 µM (inactive). The GI50 (COLO 205) was > 100 µM (inactive), the GI50 (DU-145) was > 100 µM (inactive) and the GI50 (EKVX) was > 100 µM (inactive). For the same compound, the GI50 (HCC 2998) was > 100 µM (inactive), the GI50 (HCT-116) was > 100 µM (inactive) and the GI50 (HCT-15) was > 100 µM. The GI50 (HL-60) was > 100 µM (inactive), the GI50 (HOP-62) was 35.6 µM (inactive) and the GI50 (HOP-92) was 27.1 µM (inactive). The GI50 (HT-29) was > 100 µM (inactive), the GI50 (Hs-578T) was > 100 µM (inactive) and the GI50 (IGROV-1) was > 100 µM (inactive). For the same compound, the GI50 (K562) was > 100 µM (inactive), the GI50 (KM12) was > 100 µM (inactive) and the GI50 (LOX IMVI) was > 100 µM (inactive). The GI50 (M14) was > 100 µM (inactive), the GI50 (MCF7) was 0.834 µM (active) and the GI50 (MDA-MB-231) was 15.8 µM (inactive). The GI50 (MDA-MB-435) was > 100 µM (inactive), the GI50 (MDA-N) was > 100 µM (inactive) and the GI50 (MOLT-4) was > 100 µM (inactive). For the same compound, the GI50 (Malme-3M) was > 100 µM (inactive), the GI50 (NCI-H226) was > 100 µM (inactive) and the GI50 (NCI-H23) was 80.2 µM (inactive). For the same compound, the GI50 (NCI-H460) was > 100 µM (inactive), the GI50 (NCI-H522) was > 100 µM (inactive) and the GI50 (NCI/ADR-RES) was > 100 µM (inactive). For the same compound, the GI50 (OVCAR-3) was > 100 µM (inactive), the GI50 (OVCAR-4) was 91.6 µM (inactive) and the GI50 (OVCAR-5) was > 100 µM (inactive). The GI50 (OVCAR-8) was > 100 µM (inactive), the GI50 (PC-3) was > 100 µM (inactive) and the GI50 (RPMI-8226) was > 100 µM (inactive). The GI50 (RXF 393) was 72.6 µM (inactive), the GI50 (SF-268) was > 100 µM (inactive) and the GI50 (SF-295) was > 100 µM (inactive). For the same compound, the GI50 (SF-539) was 44.3 µM (inactive), the GI50 (SK-MEL-28) was > 100 µM (inactive) and the GI50 (SK-MEL-2) was > 100 µM (inactive). For the same compound, the GI50 (SK-MEL-5) was > 100 µM (inactive), the GI50 (SK-OV-3) was 92.5 µM (inactive) and the GI50 (SN12C) was > 100 µM (inactive). For the same compound, the GI50 (SNB-19) was > 100 µM (inactive), the GI50 (SNB-75) was 0.26 µM (active) and the GI50 (SR) was > 100 µM (inactive). The GI50 (SW-620) was > 100 µM (inactive), the GI50 (T47D) was > 100 µM (inactive) and the GI50 (TK-10) was > 100 µM (inactive). For the same compound, the GI50 (U-251) was > 100 µM (inactive), the GI50 (UACC-257) was > 100 µM (inactive) and the GI50 (UACC-62) was > 100 µM (inactive). For the same compound, the GI50 (UO-31) was 71.3 µM (inactive).
